Experiment [1] relates to MMTV promoter luciferase reporter in HeLa cell line (GR transcription activation). As to the kind of experiment: MMTV transcription activation activity, luciferase reporter gene screening system (MMTV_GR transcription activation experiment). The note with it: Homo sapiens; for Emax: HeLa, maximum effect value, positive control 1000 nM dexamethasone, read-out: TA (MMTV transcription activation activity) Effect; for EC50: absolute EC50, HeLa MMTV-luciferase cells, 18 h, max concentration 1000 nM, read-out: TA (MMTV transcription activation activity) EC50. It counts as cell-based. The text has this: The promoter of mouse mammary tumor virus (MMTV) contains specific binding sites for activating GRs (GREs). To determine the activity of the compounds, a reporter gene (luciferase) was inserted after the MMTV promoter, and this construct was expressed in a stable manner in the genome of the HeLa cell line. MMTV promoter was activated by the test compounds to induce the expression of luciferase, and its activity was detected by luminescence measurement.
• [0442] 1) All the culture media were carefully aspirated, the cell layer was rinsed gently with an appropriate amount of DPBS, and then aspirated. • [0443] 2) An appropriate amount of 0.05% Typsine EDTA was added and incubated in a CO2 incubator for 3-5 minutes to digest the cells. • [0444] 3) The cells were resuspended with an appropriate amount of cell culture medium. • [0445] 4) The amount of cells required was calculated, and the cell concentration was 4×10^3 cells/well. • [0446] 5) The cell suspension was diluted with appropriate cell culture medium. • [0447] 6) Cell suspension was dispensed into a disposable sterile loading slot. • [0448] 7) Inoculated 30 µL per well into a 384-well plate. • [0449] 8) The cell plate was placed in a 37° C. 5% CO2 incubator for 18-24 hours.
Compounds were diluted with DMSO to 1 mM, 0.25 mM, 0.0625 mM, 0.015625 mM, 0.0039 mM, 0.0009765 mM, 0.000244 mM, 0.000061 mM, 0.00001526 mM and 0.0000038125 mM, then diluted 25-fold with serum culture medium treated with activated carbon, and finally 4x concentration compound experimental plate was obtained, prepared before use.
The final DMSO experimental concentration was 0.1%.
MMTV_GR transcription activation activity experiment • [0458] 1) Inoculated cells: Fresh cells were inoculated into 384 white transparent bottom experimental plates at 4×10^3 cells/30 µL/well, and incubated at 37° C. 5% CO2 incubator for 24 hours. • [0459] 2) Compound preparation: The compound plate was prepared before the experiment, and the reference compound (dexamethasone) and the test compound of 4x concentration were prepared. Finally, the experimental plate of 4x concentration compound was obtained. • [0460] 3) Added compound: 10 µL of 4x compound was transferred with Bravo and added to cell plate. Incubated for 18 hours in a 37° C. 5% CO2 incubator. • [0461] 4) 30 µL of Bright-Glo fluorescent detection reagent was transferred to the cell plate. • [0462] 5) Centrifugal incubation for 2 minutes. • [0463] 6) The fluorescence value was measured with the Envision plate reader.
Positive control: 1000 nM dexamethasone (0.1% DMSO)
Negative control: 0.1% DMSO
(§1) Test compound: Maximum concentration of 1000 nM, 4-fold dilution, 10 wells in total, repeated.
(§2) Dexamethasone: Maximum concentration of 1000 nM, 4-fold dilution, 10 wells in total, repeated.
The graphing software GraphPad Prism5 was used to create the concentration curves of the tested compounds and calculate the IC50 values.

Experiment [2] deals with hMMP-1 promoter reporter gene in Hela cells (GR transcription repression). In words: hMMP1 transcription repression activity, luciferase reporter gene screening system (hMMP1 GR transcription repression test). It is filed as cell-based. The note with it: Homo sapiens; for Emax: HeLa, maximum effect value, positive control 1000 nM dexamethasone, read-out: TR (hMMP1 transcription inhibition activity) Effect; for IC50: absolute IC50, HeLa hMMP-1/luciferase cells, 10 nM PMA, 18 h, max concentration 1000 nM, read-out: TR (hMMP1 transcription inhibition activity) IC50.
Source text: Human MMP-1 promoter region (containing two AP-1 binding sites and two PEA3 sites, a total of 249bp, GenBank catalog #AF023338) was cloned into the upstream of luciferase reporter gene. The hMMP-1 promoter reporter gene was constructed and transfected into Hela cells so that luciferase production could be easily detected. A stable recombinant hMMP-⅟luciferase cell line was used for the development and validation of this experiment.
• [0377] 1) All the culture media were carefully aspirated, and the cell layer was rinsed gently with an appropriate amount of DPBS, and then aspirated. • [0378] 2) An appropriate amount of 0.05% Typsine EDTA was added and incubated in a CO2 incubator for 3-5 minutes to digest the cells. • [0379] 3) The cells were resuspended with an appropriate amount of cell culture medium. • [0380] 4) The required amount of cells were calculated. The cell concentration was 5x10^3 cells/well. • [0381] 5) The cell suspension was diluted with appropriate cell culture medium. • [0382] 6) The cell suspension was dispensed into a disposable sterile loading slot. • [0383] 7) Inoculated 30µL per well into a 384-well plate. • [0384] 8) The cell plate was placed in a 37° C. 5% CO2 incubator for 18-24 hours.
The final DMSO concentration was 0.1%. PMA needs to be protected from light during use.
hMMP1 GR transcription repression activity test • [0395] 1) Inoculated cells: Fresh cells were inoculated into 384 white experimental plates at 5x10^3 cells/30µL/well, and incubated in a 5% CO2 incubator at 37° C. for 24 hours. • [0396] 2) Compound preparation: The compound plate was prepared before the experiment, and the reference compound (dexamethasone) and the tested compound of 10x concentration were prepared. Finally, the experimental plate of 10× concentration compound was obtained. • [0397] 3) Added compound: 3.3 µL of 10x compound was transferred with Bravo and added to cell plate. Incubated for 18 hours in a 5% CO2 incubator at 37° C. • [0398] 4) 30 µL of Bright-Glo fluorescent detection reagent was transferred to the cell plate. • [0399] 5) Centrifugal incubation for 2 minutes. • [0400] 6) The fluorescence value was measured with the Envision plate reader.
Positive Control: 10 nM PMA + 1000 nM dexamethasone (0.1% DMSO)
Negative control: 10 nM PMA (0.1% DMSO)
as §1, §2
The graphing software GraphPad Prism5 was used to create the concentration curves of the test compounds and calculate the IC50 values.
(Reporter assays use an easily measured gene product as a stand-in for the process of interest.)

The text below walks through data of US20230167068A1, “BENZOPYRAZOLE COMPOUND” (MEDSHINE DISCOVERY INC., priority 2019, published 2023).

SMILES strings stand for the structures.

Turning to `C[C@H](NC(=O)C(C)(F)F)[C@H](Oc1ccc2c(cnn2-c2ccc3c(c2)CCCO3)c1)c1cc(F)cc(F)c1` [WX002], in experiment [1], the Emax was 76% and the EC50 (usually the concentration giving half of the maximal effect) worked out at 2.07 nM. Further, in experiment [2], the Emax turned out to be 100% and the IC50 (in general, the concentration that gives 50% inhibition) is 0.318 nM.

For `C[C@H](NC(=O)C(C)(F)F)[C@H](Oc1ccc2c(cnn2-c2ccc3nccn3c2)c1)c1cc(F)cc(F)c1` [WX003], in experiment [1], the Emax came out at 91.4% and the half-maximal effective concentration (EC50) came out at 0.229 nM. For the same compound, in experiment [2], the Emax stood at 95.1% and the concentration for half-maximal inhibition (IC50) was determined as 0.08 nM.

`CC(C)[C@H](NC(=O)C(C)(F)F)[C@H](Oc1ccc2c(cnn2-c2ccc3nccn3c2)c1)c1ccccc1` [WX004]: in experiment [1], the Emax worked out at 63.7% and the EC50 was found to be 5.86 nM. Also, in experiment [2], the Emax turned out to be 78.8% and the 50% inhibitory concentration (IC50) was determined as 3.58 nM.

On to `CC(C)[C@H](NC(=O)C(C)(F)F)[C@H](Oc1ccc2c(cnn2-c2ccc3nncn3c2)c1)c1cc(F)cc(F)c1` [WX017], for which, in experiment [1], the Emax came out at 81.3% and the EC50 is 2.56 nM. Besides, in experiment [2], the Emax was found to be 86% and the IC50 came to 0.9 nM.

For the compound `CC(C)[C@H](NC(=O)C(C)(F)F)[C@H](Oc1ccc2c(cnn2-c2ccc3nncn3c2)c1)c1ccccc1` [WX018], in experiment [1], the Emax turned out to be 69.4% and the EC50 was 12.3 nM. In experiment [2], the Emax turned out to be 83.7% and the half-inhibitory concentration (IC50) came out at 6.1 nM.

Turning to `C[C@H](NC(=O)C(C)(F)F)[C@H](Oc1ccc2c(cnn2-c2ccc3nncn3c2)c1)c1cc(F)cc(F)c1` [WX019], in experiment [1], the Emax worked out at 75.2% and the EC50 turned out to be 0.94 nM. Moreover, in experiment [2], the Emax is 94.8% and the IC50 turned out to be 0.171 nM.

`C[C@H](NC(=O)C(C)(F)F)[C@H](Oc1ccc2c(cnn2-c2ccc3ncnn3c2)c1)c1cc(F)cc(F)c1` [WX034]: in experiment [1], the Emax turned out to be 89.2% and the concentration giving a half-maximal response (EC50) turned out to be 3.2 nM. For the same compound, in experiment [2], the Emax came to 97.1% and the IC50 turned out to be 3.22 nM.

As to `C[C@H](NC(=O)C(C)(F)F)[C@H](Oc1ccc2c(cnn2-c2ccc3nnnn3c2)c1)c1cc(F)cc(F)c1` [WX035], in experiment [1], the Emax amounted to 82.5% and the EC50 stood at 5.59 nM. Moreover, in experiment [2], the Emax worked out at 94.6% and the 50% inhibitory concentration (IC50) stood at 2.15 nM.

In the case of `C[C@H](NC(=O)C(C)(F)F)[C@H](Oc1ccc2c(cnn2-c2cnn(C)c2)c1)c1ccccc1` [WX043], in experiment [1], the Emax came out at 72.8% and the EC50 turned out to be 5.03 nM. In experiment [2], the Emax is 93.3% and the IC50 was determined as 1.21 nM.

On to `C[C@H](NC(=O)C(C)(F)F)[C@H](Oc1ccc2c(cnn2-c2cn(C)nn2)c1)c1cc(F)cc(F)c1` [WX051], for which, in experiment [1], the Emax stood at 70.8% and the EC50 was 4.93 nM. In experiment [2], the Emax is 95.4% and the IC50 was determined as 3.45 nM.
